#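 Protocol summary: plate cells (96-well), add compound at 5 concentrations, incubate 48 h, interpolate endpoints linearly. GI50 = concentration required for 50% inhibition of growth. TGI marks complete inhibition of growth.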
# Key:
# Assay in all cases: NCI anticancer screen, dose series, 48 h
# 786-0 renal = system: 786-0 renal
# A498 renal = system: A498 renal
# A549 NSCLC = system: A549 NSCLC
# ACHN renal = system: ACHN renal
# BT-549 breast = system: BT-549 breast
# CAKI-1 renal = system: CAKI-1 renal
# COLO 205 colon = system: COLO 205 colon
# DU-145 prostate = system: DU-145 prostate
# EKVX NSCLC = system: EKVX NSCLC
# HCC-2998 colon = system: HCC-2998 colon
# HCT-116 colon = system: HCT-116 colon
# HCT-15 colon = system: HCT-15 colon
# HOP-92 NSCLC = system: HOP-92 NSCLC
# HT29 colon = system: HT29 colon
# IGROV1 ovarian = system: IGROV1 ovarian
# KM12 colon = system: KM12 colon
# LOX IMVI melanoma = system: LOX IMVI melanoma
# M14 melanoma = system: M14 melanoma
# MALME-3M melanoma = system: MALME-3M melanoma
# MCF7 breast = system: MCF7 breast
# MDA-MB-231 breast = system: MDA-MB-231 breast
# MDA-MB-435 = system: MDA-MB-435
# NCI-H226 lung = system: NCI-H226 lung
# NCI-H23 lung = system: NCI-H23 lung
# NCI-H460 lung = system: NCI-H460 lung
# NCI-H522 lung = system: NCI-H522 lung
# NCI/ADR-RES ovarian = system: NCI/ADR-RES ovarian
# OVCAR-3 ovarian = system: OVCAR-3 ovarian
# OVCAR-4 ovarian = system: OVCAR-4 ovarian
# OVCAR-5 ovarian = system: OVCAR-5 ovarian
# OVCAR-8 ovarian = system: OVCAR-8 ovarian
# PC-3 prostate = system: PC-3 prostate
# RPMI-8226 leukemia = system: RPMI-8226 leukemia
# RXF 393 renal = system: RXF 393 renal
# SF-268 CNS = system: SF-268 CNS
# SF-295 CNS = system: SF-295 CNS
# SF-539 CNS = system: SF-539 CNS
# SK-MEL-2 melanoma = system: SK-MEL-2 melanoma
# SK-MEL-28 melanoma = system: SK-MEL-28 melanoma
# SK-MEL-5 melanoma = system: SK-MEL-5 melanoma
# SK-OV-3 ovarian = system: SK-OV-3 ovarian
# SN12C renal = system: SN12C renal
# SNB-19 CNS = system: SNB-19 CNS
# SNB-75 CNS = system: SNB-75 CNS
# SW-620 colon = system: SW-620 colon
# T-47D breast = system: T-47D breast
# TK-10 renal = system: TK-10 renal
# U251 CNS = system: U251 CNS
# UACC-257 melanoma = system: UACC-257 melanoma
# UACC-62 melanoma = system: UACC-62 melanoma
# UO-31 renal = system: UO-31 renal
# HL-60(TB) leukemia = system: HL-60(TB) leukemia
# HS 578T breast = system: HS 578T breast
# CCRF-CEM leukemia = system: CCRF-CEM leukemia
# HOP-62 NSCLC = system: HOP-62 NSCLC
# MOLT-4 leukemia = system: MOLT-4 leukemia
# SR leukemia = system: SR leukemia
smiles,measurement,setting,value
Cc1cc(N)cc(C)c1-c1c(Br)cc(N)cc1Br,GI50,786-0 renal,5.53 µM
same,TGI,786-0 renal,18.7 µM
same,GI50,A498 renal,1.82 µM
same,TGI,A498 renal,7.54 µM
same,GI50,A549 NSCLC,4.71 µM
same,TGI,A549 NSCLC,56.5 µM
same,GI50,ACHN renal,10.6 µM
same,TGI,ACHN renal,98.4 µM
same,GI50,BT-549 breast,7.51 µM
same,TGI,BT-549 breast,30.4 µM
same,GI50,CAKI-1 renal,3.07 µM
same,TGI,CAKI-1 renal,31.2 µM
same,GI50,COLO 205 colon,2.39 µM
same,TGI,COLO 205 colon,4.88 µM
same,GI50,DU-145 prostate,2.89 µM
same,TGI,DU-145 prostate,9.13 µM
same,GI50,EKVX NSCLC,5.65 µM
same,TGI,EKVX NSCLC,> 100 µM
same,GI50,HCC-2998 colon,3.42 µM
same,TGI,HCC-2998 colon,16.6 µM
same,GI50,HCT-116 colon,3.68 µM
same,TGI,HCT-116 colon,13.1 µM
same,GI50,HCT-15 colon,4.77 µM
same,TGI,HCT-15 colon,> 100 µM
same,GI50,HOP-92 NSCLC,2.01 µM
same,TGI,HOP-92 NSCLC,9.32 µM
same,GI50,HT29 colon,2.82 µM
same,TGI,HT29 colon,12 µM
same,GI50,IGROV1 ovarian,4.32 µM
same,TGI,IGROV1 ovarian,> 100 µM
same,GI50,KM12 colon,3.75 µM
same,TGI,KM12 colon,17.3 µM
same,GI50,LOX IMVI melanoma,6.14 µM
same,TGI,LOX IMVI melanoma,20.7 µM
same,GI50,M14 melanoma,2.65 µM
same,TGI,M14 melanoma,8.76 µM
same,GI50,MALME-3M melanoma,10.5 µM
same,TGI,MALME-3M melanoma,54.3 µM
same,GI50,MCF7 breast,4.54 µM
same,TGI,MCF7 breast,> 100 µM
same,GI50,MDA-MB-231 breast,4.1 µM
same,TGI,MDA-MB-231 breast,26.3 µM
same,GI50,MDA-MB-435,1.78 µM
same,TGI,MDA-MB-435,11.2 µM
same,GI50,NCI-H226 lung,9.43 µM
same,TGI,NCI-H226 lung,> 100 µM
same,GI50,NCI-H23 lung,3.52 µM
same,TGI,NCI-H23 lung,19 µM
same,GI50,NCI-H460 lung,3.31 µM
same,TGI,NCI-H460 lung,11.2 µM
same,GI50,NCI-H522 lung,2.19 µM
same,TGI,NCI-H522 lung,7.88 µM
same,GI50,NCI/ADR-RES ovarian,2.23 µM
same,TGI,NCI/ADR-RES ovarian,5.57 µM
same,GI50,OVCAR-3 ovarian,2.63 µM
same,TGI,OVCAR-3 ovarian,6.3 µM
same,GI50,OVCAR-4 ovarian,5.93 µM
same,TGI,OVCAR-4 ovarian,> 100 µM
same,GI50,OVCAR-5 ovarian,4.84 µM
same,TGI,OVCAR-5 ovarian,> 100 µM
same,GI50,OVCAR-8 ovarian,4.41 µM
same,TGI,OVCAR-8 ovarian,28.6 µM
same,GI50,PC-3 prostate,4.17 µM
same,TGI,PC-3 prostate,69.1 µM
same,GI50,RPMI-8226 leukemia,3.04 µM
same,TGI,RPMI-8226 leukemia,10.4 µM
same,GI50,RXF 393 renal,2.57 µM
same,TGI,RXF 393 renal,6.91 µM
same,GI50,SF-268 CNS,6.36 µM
same,TGI,SF-268 CNS,68.5 µM
same,GI50,SF-295 CNS,2.76 µM
same,TGI,SF-295 CNS,12.1 µM
same,GI50,SF-539 CNS,2.89 µM
same,TGI,SF-539 CNS,11.1 µM
same,GI50,SK-MEL-2 melanoma,4.14 µM
same,TGI,SK-MEL-2 melanoma,21.1 µM
same,GI50,SK-MEL-28 melanoma,5.21 µM
same,TGI,SK-MEL-28 melanoma,33.7 µM
same,GI50,SK-MEL-5 melanoma,4.52 µM
same,TGI,SK-MEL-5 melanoma,16.1 µM
same,GI50,SK-OV-3 ovarian,3.62 µM
same,TGI,SK-OV-3 ovarian,12.2 µM
same,GI50,SN12C renal,6.05 µM
same,TGI,SN12C renal,73.2 µM
same,GI50,SNB-19 CNS,5.3 µM
same,TGI,SNB-19 CNS,> 100 µM
same,GI50,SNB-75 CNS,2.29 µM
same,TGI,SNB-75 CNS,16.2 µM
same,GI50,SW-620 colon,3.68 µM
same,TGI,SW-620 colon,> 100 µM
same,GI50,T-47D breast,4.11 µM
same,TGI,T-47D breast,20.3 µM
same,GI50,TK-10 renal,5.67 µM
same,TGI,TK-10 renal,37.7 µM
same,GI50,U251 CNS,4.54 µM
same,TGI,U251 CNS,17.9 µM
same,GI50,UACC-257 melanoma,14.3 µM
same,TGI,UACC-257 melanoma,51.8 µM
same,GI50,UACC-62 melanoma,3.52 µM
same,TGI,UACC-62 melanoma,24 µM
same,GI50,UO-31 renal,9.11 µM
same,TGI,UO-31 renal,46 µM
N=C(N)c1ccc(-c2ccc(-c3ccc(Cl)c(Cl)c3)o2)cc1,GI50,HL-60(TB) leukemia,1.55 µM
same,TGI,HL-60(TB) leukemia,4.05 µM
same,GI50,HS 578T breast,2.1 µM
same,TGI,HS 578T breast,5.52 µM
CC1(O)COCCCCOc2c(CN)cccc2NC(=O)c2nc(cnc2N)-c2ccc(cc2)S(=O)(=O)C(C)(C)C1 (centres undefined),GI50,A498 renal,0.0163 µM
same,TGI,A498 renal,1.43 µM
same,GI50,A549 NSCLC,0.29 µM
same,TGI,A549 NSCLC,2.34 µM
same,GI50,ACHN renal,0.042 µM
same,TGI,ACHN renal,2.06 µM
same,GI50,BT-549 breast,1.45 µM
same,TGI,BT-549 breast,2.91 µM
same,GI50,CAKI-1 renal,1.22 µM
same,TGI,CAKI-1 renal,2.53 µM
same,GI50,CCRF-CEM leukemia,< 0.01 µM
same,TGI,CCRF-CEM leukemia,1.25 µM
same,GI50,COLO 205 colon,0.546 µM
same,TGI,COLO 205 colon,2.17 µM
same,GI50,DU-145 prostate,0.0388 µM
same,TGI,DU-145 prostate,2.04 µM
same,GI50,EKVX NSCLC,1.68 µM
same,TGI,EKVX NSCLC,3.38 µM
same,GI50,HCC-2998 colon,1.48 µM
same,TGI,HCC-2998 colon,2.87 µM
same,GI50,HCT-116 colon,0.129 µM
same,TGI,HCT-116 colon,1.12 µM
same,GI50,HCT-15 colon,0.227 µM
same,TGI,HCT-15 colon,1.82 µM
same,GI50,HOP-62 NSCLC,1.26 µM
same,TGI,HOP-62 NSCLC,3.17 µM
same,GI50,HOP-92 NSCLC,1.31 µM
same,TGI,HOP-92 NSCLC,2.74 µM
same,GI50,HT29 colon,0.408 µM
same,TGI,HT29 colon,2.47 µM
same,GI50,IGROV1 ovarian,1.28 µM
same,TGI,IGROV1 ovarian,2.7 µM
same,GI50,KM12 colon,1.43 µM
same,TGI,KM12 colon,2.93 µM
same,GI50,MALME-3M melanoma,1.77 µM
same,TGI,MALME-3M melanoma,3.43 µM
same,GI50,MCF7 breast,< 0.01 µM
same,TGI,MCF7 breast,1.89 µM
same,GI50,MDA-MB-231 breast,1.37 µM
same,TGI,MDA-MB-231 breast,2.82 µM
same,GI50,MDA-MB-435,1.35 µM
same,TGI,MDA-MB-435,2.72 µM
same,GI50,MOLT-4 leukemia,0.019 µM
same,TGI,MOLT-4 leukemia,2.4 µM
same,GI50,NCI-H460 lung,< 0.01 µM
same,TGI,NCI-H460 lung,1.94 µM
same,GI50,NCI/ADR-RES ovarian,1.71 µM
same,TGI,NCI/ADR-RES ovarian,4.02 µM
same,GI50,OVCAR-3 ovarian,1.23 µM
same,TGI,OVCAR-3 ovarian,2.56 µM
same,GI50,OVCAR-4 ovarian,1.29 µM
same,TGI,OVCAR-4 ovarian,2.71 µM
same,GI50,OVCAR-5 ovarian,2.04 µM
same,TGI,OVCAR-5 ovarian,3.56 µM
same,GI50,OVCAR-8 ovarian,1.31 µM
same,TGI,OVCAR-8 ovarian,3.63 µM
same,GI50,PC-3 prostate,1.18 µM
same,TGI,PC-3 prostate,2.54 µM
same,GI50,RPMI-8226 leukemia,1.2 µM
same,TGI,RPMI-8226 leukemia,3.5 µM
same,GI50,RXF 393 renal,0.015 µM
same,TGI,RXF 393 renal,1.87 µM
same,GI50,SF-268 CNS,1.51 µM
same,TGI,SF-268 CNS,3.19 µM
same,GI50,SF-295 CNS,1.43 µM
same,TGI,SF-295 CNS,2.84 µM
same,GI50,SF-539 CNS,0.03 µM
same,TGI,SF-539 CNS,1.67 µM
same,GI50,SK-MEL-2 melanoma,1.74 µM
same,TGI,SK-MEL-2 melanoma,3.36 µM
same,GI50,SK-MEL-28 melanoma,1.83 µM
same,TGI,SK-MEL-28 melanoma,3.47 µM
same,GI50,SK-MEL-5 melanoma,1.25 µM
same,TGI,SK-MEL-5 melanoma,2.56 µM
same,GI50,SK-OV-3 ovarian,1.37 µM
same,TGI,SK-OV-3 ovarian,2.8 µM
same,GI50,SN12C renal,1.27 µM
same,TGI,SN12C renal,2.66 µM
same,GI50,SNB-19 CNS,1.33 µM
same,TGI,SNB-19 CNS,2.74 µM
same,GI50,SNB-75 CNS,0.17 µM
same,TGI,SNB-75 CNS,1.94 µM
same,GI50,SR leukemia,< 0.01 µM
same,TGI,SR leukemia,0.391 µM
same,GI50,SW-620 colon,0.42 µM
same,TGI,SW-620 colon,1.98 µM
same,GI50,T-47D breast,1.44 µM
same,TGI,T-47D breast,3.27 µM
same,GI50,TK-10 renal,1.64 µM
same,TGI,TK-10 renal,3.34 µM
same,GI50,U251 CNS,0.715 µM
same,TGI,U251 CNS,2.22 µM
same,GI50,UACC-257 melanoma,1.76 µM
same,TGI,UACC-257 melanoma,3.35 µM
same,GI50,UACC-62 melanoma,1.86 µM
same,TGI,UACC-62 melanoma,3.36 µM
same,GI50,UO-31 renal,1.06 µM
same,TGI,UO-31 renal,2.31 µM

# Reference: PubChem BioAssay (NCI)
